Reference: patent US20090105206A1, “Copper Melphalan And Copper Tegafur As Anti-Tumor Agents” (priority 2004, published 2009)
“And” between values parts separate entries of the source, which are not always exact repeats. Equal entries are not always repeated.

System: OVCAR-3/P19 tumor cells
Assay: Example 6: NOD/SCID mice s.c. injected with OVCAR-3 tumor cells
Assay type: in vivo, female NOD/SCID mice
Parameters: Vol (tumor volume) Day 20 / Vol (tumor volume) Day 30 / Vol (tumor volume) Day 37: unit: cm^3
Description: 2×10^6 OVCAR-3/P19 tumor cells were s.c. injected into female NOD/SCID mice. The mice were treated as follows.
The treatment began with a mean tumor volume of 80 mm^3.
To level possible differences in tumor volume at the start of treatment in the individual groups and to make evident differences owing to the low absolute volumes in the treatment groups, the relative tumor volumes (RTV) have been analyzed. The relative tumor volume results from the ratio of the volume on day x and the tumor volume at the start of treatment in the same test animal. […] The tumor growth was stopped in group 2 after just 7 days. After 3 days of constant tumor volume a tumor regression began from day 30 (10th day of treatment) in the test animals treated with copper-melphalan.

[1] = Gr. 3, 7.5 mg/kg copper-melphalan i.p., individual animals
[2] = Gr. 3, 7.5 mg/kg copper-melphalan i.p., n = 8
[3] = Gr. 3, 7.5 mg/kg copper-melphalan i.p., n = 8, baseline
[4] = Gr. 3, 7.5 mg/kg copper-melphalan vs 5 mg/kg melphalan
[5] = Gr. 3, 7.5 mg/kg copper-melphalan vs 5 mg/kg melphalan, baseline
[6] = Gr. 3, 7.5 mg/kg copper-melphalan vs control (PBS)
[7] = Gr. 3, 7.5 mg/kg copper-melphalan vs control (PBS), baseline

For `N[C@@H](Cc1ccc(N(CCCl)CCCl)cc1)C(=O)[O-].N[C@@H](Cc1ccc(N(CCCl)CCCl)cc1)C(=O)[O-].O.O.[Cu+2]` [Cu(melphalan)2], the “effectiveness compared with melphalan (RTV, FIG. 9)” value (7.5 mg/kg copper-melphalan vs 5 mg/kg melphalan i.p.) was “more effective than melphalan”, the “day from which tumor regression began” value (7.5 mg/kg i.p., 10th day of treatment, after 3 days of constant tumor volume) was 30 days and the “mice with tumor regression on day 37” value (Gr. 3, 7.5 mg/kg copper-melphalan) was 88%. The “Vol (tumor volume) Day 20” value (Gr. 3, 7.5 mg/kg copper-melphalan i.p. days 21-37 every 2nd day, Day 20 = start of treatment (baseline), individual animals) was 0.08 and 0.11 and 0.05 and 0.04 and 0.10 and 0.02 and 0.09 and 0.12, the “RTV (relative tumor volume) Day 20” value (Gr. 3, 7.5 mg/kg copper-melphalan i.p., baseline, individual animals) was 1.00 and the “RTV (relative tumor volume) Day 30” value [1] was 1.63 and 1.36 and 2.20 and 1.75 and 1.90 and 2.50 and 1.78 and 1.83. The “RTV (relative tumor volume) Day 37” value [1] was 2.78 and 0.63 and 0.43 and 0.78 and 0.67 and 0.70 and 0.60 and 0.51, the “Vol (tumor volume) Day 30” value [1] was 0.13 and 0.15 and 0.11 and 0.07 and 0.19 and 0.05 and 0.16 and 0.22 and the “Vol (tumor volume) Day 37” value [1] was 0.05 (3×) and 0.14 and 0.03 and 0.07 and 0.01 and 0.06. The “RTV Day 30, mean” value [2] was 1.87, the “RTV Day 30, median” value [2] was 1.81 and the “RTV Day 37, mean” value [2] was 0.89. The “RTV Day 37, median” value [2] was 0.65, the “Vol Day 30, mean” value [2] was 0.14 and the “Vol Day 30, median” value [2] was 0.14. The “Vol Day 37, mean” value [2] was 0.06, the “Vol Day 37, median” value [2] was 0.05 and the “RTV Day 20, mean” value [3] was 1.00. For the same compound, the “RTV Day 20, median” value [3] was 1.00, the “Vol Day 20, mean” value [3] was 0.08 and the “Vol Day 20, median” value [3] was 0.09. For the same compound, the “RTV Day 30, mean in % of group 2” value [4] was 82.1%, the “RTV Day 30, median in % of group 2” value [4] was 76.8% and the “RTV Day 37, mean in % of group 2” value [4] was 61.3%. The “RTV Day 37, median in % of group 2” value [4] was 45.7%, the “Vol Day 30, mean in % of group 2” value [4] was 80.6% and the “Vol Day 30, median in % of group 2” value [4] was 93.3%. For the same compound, the “Vol Day 37, mean in % of group 2” value [4] was 55.1%, the “Vol Day 37, median in % of group 2” value [4] was 63.4% and the “RTV Day 20, mean in % of group 2” value [5] was 100.0%. The “RTV Day 20, median in % of group 2” value [5] was 100.0%, the “Vol Day 20, mean in % of group 2” value [5] was 89.7% and the “Vol Day 20, median in % of group 2” value [5] was 113.3%. The “RTV Day 30, mean in % of group 1” value [6] was 31.5%, the “RTV Day 30, median in % of group 1” value [6] was 44.8% and the “RTV Day 37, mean in % of group 1” value [6] was 8.2%. The “RTV Day 37, median in % of group 1” value [6] was 8.0%, the “Vol Day 30, mean in % of group 1” value [6] was 37.6% and the “Vol Day 30, median in % of group 1” value [6] was 50.9%. The “Vol Day 37, mean in % of group 1” value [6] was 9.3%, the “Vol Day 37, median in % of group 1” value [6] was 7.0% and the “RTV Day 20, mean in % of group 1” value [7] was 100.0%. For the same compound, the “RTV Day 20, median in % of group 1” value [7] was 100.0%, the “Vol Day 20, mean in % of group 1” value [7] was 81.3% and the “Vol Day 20, median in % of group 1” value [7] was 113.3%. For the same compound, the “statistical comparison of effectiveness with melphalan at end of treatment (day 37)” value (Mann-Whitney rank sum test, mean tumor volume p=0.021, mean RTV p=0.01) was “statistically significant higher degree of effectiveness”.
